# From publication PMC8658016, “Identification of New Compounds with Anticonvulsant and Antinociceptive Properties in a Group of 3-substituted (2,5-dioxo-pyrrolidin-1-yl)(phenyl)-Acetamides” (International Journal of Molecular Sciences, 2021)
# Columns and labels:
# CYP3A4 = target: T1, CYP3A4 (Homo sapiens, UniProt P08684); test: CYP3A4 P450-Glo luminescent assay; type: in vitro ADME
# T1 construct: purchased Promega (Madison, WI, USA)
# rats [1] = test: Carrageenan-induced mechanical hyperalgesia; type: in vivo, rat; conditions: 80 mg/kg
# Description: (§1) To test the anti-inflammatory activity and the potential to attenuate inflammatory pain, we tested compound 14 in the model of carrageenan-induced aseptic inflammation. In this model, the subplantar injection of carrageenan induced an edema, mechanical, and thermal hyperalgesia. […] In our opinion, the most surprising and interesting was the long-lasting anti-edematous effect. It may result from the pharmacokinetic properties of compound 14, but also from its unique mechanism. Since inflammation is one of the critical components of neuropathy, the anti-inflammatory activity of compound 14 may be a valuable and distinctive property from classical ASDs used to treat neuropathic pain [33]. […] The pain threshold reached 87.3%, 90.9%, and 89.7% of its initial value 3, 6, and 24 h after carrageenan injection, respectively. […] The initial latency for compound 14-treated animals was 8.95 ± 0.4 s. The administration of compound 14 changed the values to 127.0%, 102.0%, 79.8%, 83.8%, and 164.4% of the initial value 1, 2, 3, 6-, and 24-h following carrageenan injection, respectively.
# The experiments were conducted on adult male Albino Swiss mice (CD-1, 18–25 g) and male Wistar rats (Krf:(WI) WU), 180–250 g) as described previously. The minimum number of animals used needed to obtain definite and normally distributed results with the utilized test. Behavioral measures were scored by trained observers, which were blind to experimental conditions. The following devices were used in the experiments: Analgesy Meter (37215, Ugo Basile), Plantar Test Apparatus (EFV5, Commat Ltd., Turkey), Plethysmometer (Plethysmometer 7140, Ugo Basile), Electronic von Frey unit (BIOSEB, France). […]
# Figure 8 Effect of compound 14 on carrageenan-induced oedema (A), mechanical hyperalgesia (B), and thermal hyperalgesia (C), developed after subplantar injection of 1% carrageenan in rats. Data are expressed as means ± S.E.M. for 6 animals; 0—the initial value considered as the paw volume (A) or nociceptive reaction (B,C) before carrageenan administration. […]
# in vivo = conditions: male, CD-1, mouse, ip
# rats [2] = test: Carrageenan-induced paw edema; type: in vivo, rat; conditions: 80 mg/kg
# Description: as §1
# The experiments were conducted on adult male Albino Swiss mice (CD-1, 18–25 g) and male Wistar rats (Krf:(WI) WU), 180–250 g) as described previously. The minimum number of animals used needed to obtain definite and normally distributed results with the utilized test. Behavioral measures were scored by trained observers, which were blind to experimental conditions. The following devices were used in the experiments: Analgesy Meter (37215, Ugo Basile), Plantar Test Apparatus (EFV5, Commat Ltd., Turkey), Plethysmometer (Plethysmometer 7140, Ugo Basile), Electronic von Frey unit (BIOSEB, France). All procedures were performed according to the European Union Directive of 22 September 2010 (2010/63/EU) and approved by the Local Ethics Committee for Experiments on Animals in Krakow, Poland (resolution no. 105/2016).
# Figure 8 Effect of compound 14 on carrageenan-induced oedema (A), mechanical hyperalgesia (B), and thermal hyperalgesia (C), developed after subplantar injection of 1% carrageenan in rats. Data are expressed as means ± S.E.M. for 6 animals; 0—the initial value considered as the paw volume (A) or nociceptive reaction (B,C) before carrageenan administration. Statistical significance compared to vehicle-treated animals (control): * p < 0.05, ** p < 0.01, *** p < 0.001, **** p < 0.0001. Statistical analysis: two-way ANOVA post hoc Bonferroni test. Statistical significance in different time points of control group: ^# p < 0.05, ^## p < 0.01, ^### p < 0.001. Statistical analysis: one-way ANOVA, followed by Dunnett’s multiple comparison test (GraphPad Prism 8.0.1).
# mice [3] = test: Timed ivPTZ seizure threshold test; type: in vivo, mouse
# Description: The timed ivPTZ test was employed to evaluate the acute effect of compound 14 on the seizure thresholds for (1) the first myoclonic twitch, (2) generalized clonic seizure with the loss of the righting reflex, and (3) forelimb tonus. The experimental procedure has been described in detail elsewhere.
# In this study, we used adult male Swiss albino mice (Kołacz, Laboratory Animals Breeding, Warszawa, Poland) license no. 106/2019 (Local Ethical Committee in Lublin). In studies assessing the acute effect of compound 14 on neuromuscular strength, body temperature, and seizure threshold, compound 14 was suspended in a 1% solution of Tween 80 and administered i.p., 30 min before the tests.
# The timed ivPTZ test was employed to evaluate the acute effect of compound 14 on the seizure thresholds for (1) the first myoclonic twitch, (2) generalized clonic seizure with loss of righting reflex, and (3) forelimb tonus. The experimental procedure was described in detail elsewhere. The changes in temperature were recorded using an electronic thermometer (ThermoWorks, Alpine, UT, USA). Mice were gently restrained and a rectal probe was inserted to a depth of ~2 cm into the rectum.
# Figure 2 Acute effect of compound 14 on the threshold for the first myoclonic twitch (panel (A)), generalized clonus (panel (B)), and forelimb tonus (panel (C)) in the ivPTZ seizure threshold test in mice. Compound 14 was administered i.p. 30 min before the seizure test. Control animals received vehicle only. Each experimental group consisted of 9–11 animals. Each bar represents the mean (mg/kg PTZ) + S.E.M. * p < 0.05; ** p < 0.01 vs. the control group (one-way ANOVA, followed by Dunnett’s post hoc test, GraphPad Prism 8.0.1).
# mice [4] = test: 6 Hz (44 mA) seizure test, model of drug-resistant epilepsy; type: in vivo; conditions: Mus musculus, ip; mice i.p.; 95% confidence interval in parentheses
# TRPV1 (VR1) (h) = target: T2, TRPV1 (VR1) (h) (Homo sapiens, UniProt Q8NER1); test: TRPV1 (VR1) functional assay, antagonist effect; type: cell-based; conditions: HEK293, human recombinant HEK-293 cells, read-out: % Inhibition of Control Agonist Response, TRPV1 (VR1) (h) (antagonist effect)
# T2 construct: Cerep Laboratories / Eurofins Panlabs (contract assay)
# T2 sequence (Q8NER1 whole entry): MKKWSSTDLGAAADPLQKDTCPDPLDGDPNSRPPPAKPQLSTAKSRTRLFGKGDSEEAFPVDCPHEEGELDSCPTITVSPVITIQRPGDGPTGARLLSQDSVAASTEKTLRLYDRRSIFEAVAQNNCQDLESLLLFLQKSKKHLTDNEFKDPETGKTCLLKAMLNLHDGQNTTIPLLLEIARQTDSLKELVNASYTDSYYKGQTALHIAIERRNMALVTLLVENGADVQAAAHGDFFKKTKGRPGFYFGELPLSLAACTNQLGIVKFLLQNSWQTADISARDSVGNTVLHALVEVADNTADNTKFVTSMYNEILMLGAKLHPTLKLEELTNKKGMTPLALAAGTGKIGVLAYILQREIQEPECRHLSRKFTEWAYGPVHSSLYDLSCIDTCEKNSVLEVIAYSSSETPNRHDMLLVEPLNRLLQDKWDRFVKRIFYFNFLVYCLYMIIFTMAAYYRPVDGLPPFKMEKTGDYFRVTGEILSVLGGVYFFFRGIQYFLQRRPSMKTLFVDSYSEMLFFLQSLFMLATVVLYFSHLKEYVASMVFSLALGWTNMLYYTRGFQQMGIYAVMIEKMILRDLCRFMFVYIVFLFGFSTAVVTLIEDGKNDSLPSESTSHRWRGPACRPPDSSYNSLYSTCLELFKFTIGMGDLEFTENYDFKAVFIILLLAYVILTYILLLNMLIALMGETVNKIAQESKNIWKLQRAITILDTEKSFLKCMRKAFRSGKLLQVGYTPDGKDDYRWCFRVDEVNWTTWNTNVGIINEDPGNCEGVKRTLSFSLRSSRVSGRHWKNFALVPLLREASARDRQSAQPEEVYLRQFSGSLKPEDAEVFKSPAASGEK
# [5] = 30 mg/kg i.p., 30 min before test
# T1 sequence (P08684 whole entry): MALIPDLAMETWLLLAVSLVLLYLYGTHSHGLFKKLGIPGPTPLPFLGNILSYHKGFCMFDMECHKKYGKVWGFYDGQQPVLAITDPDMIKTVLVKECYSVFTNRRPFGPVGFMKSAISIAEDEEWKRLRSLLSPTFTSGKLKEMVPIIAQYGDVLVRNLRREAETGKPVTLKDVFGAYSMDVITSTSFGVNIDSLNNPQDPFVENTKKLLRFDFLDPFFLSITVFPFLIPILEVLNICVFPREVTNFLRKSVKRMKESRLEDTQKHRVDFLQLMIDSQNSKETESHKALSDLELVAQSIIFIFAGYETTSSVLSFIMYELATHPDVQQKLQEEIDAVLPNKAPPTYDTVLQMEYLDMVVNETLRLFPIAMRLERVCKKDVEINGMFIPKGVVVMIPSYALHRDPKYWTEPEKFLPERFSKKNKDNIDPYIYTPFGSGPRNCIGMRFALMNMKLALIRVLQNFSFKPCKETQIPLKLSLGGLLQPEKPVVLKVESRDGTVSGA
smiles,measurement,setting,value
"CN(C)C1CC(=O)N(C(C(=O)N2CCN(c3cccc(C(F)(F)F)c3)CC2)c2ccccc2)C1=O.Cl (stereo not shown) [Compound 14, 3-(Dimethylamino)-1-(2-oxo-1-phenyl-2-(4-(3-(trifluoromethyl)phenyl)-piperazin-1-yl)ethyl)pyrrolidine-2,5-dione hydrochloride]",CYP3A4 activity in the presence of the compound,CYP3A4; 10 µM,higher than 50%
same,"CYP3A4 inhibition, classification",CYP3A4; significant inhibition only at 10 µM and 25 µM (p < 0.0001),moderate inhibitor
same,"withdrawal threshold, % of the initial reaction (mechanical hyperalgesia)",rats [1]; 3 h after carrageenan,113.3%
same,"withdrawal threshold, % of the initial reaction (mechanical hyperalgesia)",rats [1]; 6 h after carrageenan,110.1%
same,"withdrawal threshold, % of the initial reaction (mechanical hyperalgesia)",rats [1]; 24 h after carrageenan,111.4%
same,TD50,in vivo,169 mg/kg
same,reduction of paw edema,rats [2]; 1 h after carrageenan,36.8%
same,reduction of paw edema,rats [2]; 2 h after carrageenan,55.8%
same,reduction of paw edema,rats [2]; 3 h after carrageenan,62.9%
same,reduction of paw edema,rats [2]; 6 h after carrageenan,68.6%
same,reduction of paw edema,rats [2]; 24 h after carrageenan,74.3%
same,effect on threshold for generalized clonus (ivPTZ),mice [3]; [5],did not significantly affect
same,effect on threshold for the first myoclonic twitch (ivPTZ),mice [3]; [5],did not significantly affect
same,effect on threshold for generalized clonic seizure (ivPTZ),"mice [3]; 60 mg/kg i.p., 30 min before test, p < 0.01",slightly increased
same,effect on threshold for the first myoclonic twitch (ivPTZ),"mice [3]; 60 mg/kg i.p., 30 min before test, p < 0.05",slightly increased
same,effect on threshold for forelimb tonic extension (ivPTZ),mice [3]; 30 and 60 mg/kg i.p.,No statistically significant changes
same,ED50,mice [4],63.2 mg/kg
same,inhibition at 10 µM,TRPV1 (VR1) (h); 10 µM,17.3%
same,inhibition at 50 µM,TRPV1 (VR1) (h); 50 µM,88.8%
